Common to all, as to assay type: functional, cell-based
One assay has as its system SMMC-7721. As to the kind of experiment: Cytotoxicity against human SMMC7721 cells after 48 hrs by SRB assay.
Another assay concerns HL-60. The experiment in a line: Cytotoxicity against human HL60 cells after 48 hrs by SRB assay. In general terms: In SRB staining, fixed cells bind dye roughly in proportion to their protein.
In another assay the test system is HeLa. The experiment in a line: Cytotoxicity against human HeLa cells after 48 hrs by SRB assay.
[1] abbreviates: Homo sapiens, SMMC-7721, 48 h, read-out: IC50.
Where [2] appears, read: Homo sapiens, HL-60, 48 h, read-out: IC50.

The text below walks through data of ChEMBL document CHEMBL1152925, “Vladimuliecins A and B: cytotoxic pentacyclic pregnanols from Vladimiria muliensis” (J Nat Prod, 2009).

As a reminder, the IC50 is the concentration that inhibits the measured activity by half.

For the compound `C[C@@H](O)[C@H]1CC[C@@]2(O)[C@]1(C)CC[C@@H]1[C@@]3(C)CC[C@@H]4C[C@@]43[C@H](O)C[C@]12O`, the IC50 in the assay with SMMC-7721 (smmc-7721) worked out at 101 µM; with HL-60 (hl-60), 138 µM; in the assay with HeLa (hela), 165 µM.
In the case of `CO[C@@]12[C@H](COC(N)=O)C3=C(C(=O)C(C)=C(N)C3=O)N1C[C@@H]1N[C@@H]12` [MITOMYCIN], the IC50 with SMMC-7721 (setting [1]) came to 5.4 µM; with HL-60 (setting [2]), 1.5 µM; in the assay with HeLa (Homo sapiens, HeLa, 48 h, read-out: IC50), 3.3 µM.
For the compound `CC(=O)O[C@H](C)[C@H]1CC[C@@]2(O)[C@]1(C)CC[C@@H]1[C@@]3(C)CC[C@@H]4C[C@@]43[C@H](OC(C)=O)C[C@]12O` [VLADIMULIECIN A], the IC50 in the assay on SMMC-7721 (setting [1]) was 98.6 µM; with HL-60 (setting [2]), 99 µM; in the assay with HeLa (hela), 167 µM.
Turning to `CC(=O)O[C@H](C)[C@H]1CC[C@@]2(O)[C@]1(C)CC[C@@H]1[C@@]3(C)CC[C@@H]4C[C@@]43[C@H](O)C[C@]12O` [VLADIMULIECIN B], the IC50 with SMMC-7721 (smmc-7721) amounted to 104 µM; in the assay on HL-60 (setting [2]), 88 µM; in the assay with HeLa (hela), 121 µM.
